From the NIST ThermoML archive (doi:10.1021/je400250u)

Key:
[1] = xn = mol fraction of the nth substance listed; settings: 100 kPa, Liquid; for viscosity: Capillary tube (Ostwald / Ubbelohde) method; for mass density: Vibrating tube method
[2] = refractive index (Na D-line) (dimensionless); xn = mol fraction of the nth substance listed; settings: 100 kPa, Liquid, Standard Abbe refractometry

C1CC[C@H]2CCCC[C@H]2C1 [cis-decahydronaphthalene] + CCCCCCCCC
Settings | mass density, [1] [kg/m3] | refractive index, [2] | viscosity, [1] [mPa·s]
293.15 K, x1 = 0.1031 | 734.59 | – | 0.788
293.15 K, x1 = 0.2033 | 751.1 | – | 0.899
293.15 K, x1 = 0.2973 | 766.96 | – | 1.02
293.15 K, x1 = 0.3997 | 784.54 | – | 1.139
293.15 K, x1 = 0.4978 | 801.87 | – | 1.268
293.15 K, x1 = 0.6044 | 821.02 | – | 1.507
293.15 K, x1 = 0.6961 | 837.96 | – | 1.769
293.15 K, x1 = 0.8014 | 857.86 | – | 2.111
293.15 K, x1 = 0.8976 | 876.48 | – | 2.526
293.15 K, x1 = 1 | 896.85 | – | 3.355
298.15 K, x1 = 0.1031 | 730.75 | 1.4095 | 0.737
298.15 K, x1 = 0.2033 | 747.26 | 1.4168 | 0.826
298.15 K, x1 = 0.2973 | 763.14 | 1.4232 | 0.956
298.15 K, x1 = 0.3997 | 780.74 | 1.4311 | 1.064
298.15 K, x1 = 0.4978 | 798.1 | 1.438 | 1.171
298.15 K, x1 = 0.6044 | 817.23 | 1.4459 | 1.385
298.15 K, x1 = 0.6961 | 834.18 | 1.4533 | 1.624
298.15 K, x1 = 0.8014 | 854.08 | 1.4613 | 1.919
298.15 K, x1 = 0.8976 | 872.72 | 1.4688 | 2.288
298.15 K, x1 = 1 | 893.06 | 1.4776 | 3.011
303.15 K, x1 = 0.1031 | 726.86 | – | 0.695
303.15 K, x1 = 0.2033 | 743.4 | – | 0.786
303.15 K, x1 = 0.2973 | 759.3 | – | 0.883
303.15 K, x1 = 0.3997 | 776.91 | – | 0.986
303.15 K, x1 = 0.4978 | 794.29 | – | 1.086
303.15 K, x1 = 0.6044 | 813.43 | – | 1.276
303.15 K, x1 = 0.6961 | 830.38 | – | 1.49
303.15 K, x1 = 0.8014 | 850.29 | – | 1.748
303.15 K, x1 = 0.8976 | 868.92 | – | 2.081
303.15 K, x1 = 1 | 889.26 | – | 2.718
308.15 K, x1 = 0.1031 | 722.96 | 1.4047 | 0.655
308.15 K, x1 = 0.2033 | 739.52 | 1.4121 | 0.739
308.15 K, x1 = 0.2973 | 755.44 | 1.4189 | 0.826
308.15 K, x1 = 0.3997 | 773.07 | 1.4269 | 0.917
308.15 K, x1 = 0.4978 | 790.46 | 1.4336 | 1.01
308.15 K, x1 = 0.6044 | 809.61 | 1.4425 | 1.182
308.15 K, x1 = 0.6961 | 826.58 | 1.4492 | 1.372
308.15 K, x1 = 0.8014 | 846.49 | 1.4572 | 1.606
308.15 K, x1 = 0.8976 | 865.13 | 1.4654 | 1.891
308.15 K, x1 = 1 | 885.46 | 1.4736 | 2.47
313.15 K, x1 = 0.1031 | 719.05 | – | 0.617
313.15 K, x1 = 0.2033 | 735.63 | – | 0.698
313.15 K, x1 = 0.2973 | 751.56 | – | 0.77
313.15 K, x1 = 0.3997 | 769.21 | – | 0.852
313.15 K, x1 = 0.4978 | 786.62 | – | 0.943
313.15 K, x1 = 0.6044 | 805.79 | – | 1.099
313.15 K, x1 = 0.6961 | 822.76 | – | 1.26
313.15 K, x1 = 0.8014 | 842.68 | – | 1.476
313.15 K, x1 = 0.8976 | 861.33 | – | 1.732
313.15 K, x1 = 1 | 881.65 | – | 2.252
318.15 K, x1 = 0.1031 | 715.12 | 1.4002 | 0.588
318.15 K, x1 = 0.2033 | 731.73 | 1.4077 | 0.662
318.15 K, x1 = 0.2973 | 747.68 | 1.4145 | 0.728
318.15 K, x1 = 0.3997 | 765.35 | 1.4223 | 0.802
318.15 K, x1 = 0.4978 | 782.77 | 1.4294 | 0.89
318.15 K, x1 = 0.6044 | 801.95 | 1.4379 | 1.033
318.15 K, x1 = 0.6961 | 818.94 | 1.4452 | 1.174
318.15 K, x1 = 0.8014 | 838.88 | 1.4533 | 1.374
318.15 K, x1 = 0.8976 | 857.52 | 1.4616 | 1.604
318.15 K, x1 = 1 | 877.85 | 1.4696 | 2.079
323.15 K, x1 = 0.1031 | 711.17 | – | 0.559
323.15 K, x1 = 0.2033 | 727.8 | – | 0.626
323.15 K, x1 = 0.2973 | 743.78 | – | 0.681
323.15 K, x1 = 0.3997 | 761.47 | – | 0.753
323.15 K, x1 = 0.4978 | 778.9 | – | 0.835
323.15 K, x1 = 0.6044 | 798.11 | – | 0.965
323.15 K, x1 = 0.6961 | 815.11 | – | 1.094
323.15 K, x1 = 0.8014 | 835.06 | – | 1.262
323.15 K, x1 = 0.8976 | 853.71 | – | 1.477
323.15 K, x1 = 1 | 874.05 | – | 1.912
